Reference: PubChem BioAssay (NCI)
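Cultured in 96-well plates, cells were exposed to test compound for 48 hours across five concentrations. The concentration for 50% growth inhibition is given as GI50. TGI: total growth inhibition.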

Tests used:
Experiment in all cases: inhibition of tumour cell growth, NCI panel, 48 h
A498 renal = test system: A498 renal
SF-268 CNS = test system: SF-268 CNS
IGROV1 ovarian = test system: IGROV1 ovarian
HL-60(TB) leukemia = test system: HL-60(TB) leukemia
NCI-H522 lung = test system: NCI-H522 lung
CAKI-1 renal = test system: CAKI-1 renal
SF-539 CNS = test system: SF-539 CNS
UO-31 renal = test system: UO-31 renal
NCI-H226 lung = test system: NCI-H226 lung
MOLT-4 leukemia = test system: MOLT-4 leukemia
BT-549 breast = test system: BT-549 breast
DU-145 prostate = test system: DU-145 prostate
UACC-62 melanoma = test system: UACC-62 melanoma
NCI-H23 lung = test system: NCI-H23 lung
HOP-92 NSCLC = test system: HOP-92 NSCLC
HCT-15 colon = test system: HCT-15 colon
SF-295 CNS = test system: SF-295 CNS
T-47D breast = test system: T-47D breast
NCI-H460 lung = test system: NCI-H460 lung
A549 NSCLC = test system: A549 NSCLC
MDA-MB-231 breast = test system: MDA-MB-231 breast
HOP-62 NSCLC = test system: HOP-62 NSCLC
UACC-257 melanoma = test system: UACC-257 melanoma
SK-MEL-28 melanoma = test system: SK-MEL-28 melanoma
OVCAR-3 ovarian = test system: OVCAR-3 ovarian
M14 melanoma = test system: M14 melanoma
SW-620 colon = test system: SW-620 colon
HCC-2998 colon = test system: HCC-2998 colon
MCF7 breast = test system: MCF7 breast
SK-MEL-5 melanoma = test system: SK-MEL-5 melanoma
MDA-MB-435 = test system: MDA-MB-435
HCT-116 colon = test system: HCT-116 colon
TK-10 renal = test system: TK-10 renal
ACHN renal = test system: ACHN renal
U251 CNS = test system: U251 CNS
RXF 393 renal = test system: RXF 393 renal
KM12 colon = test system: KM12 colon
SK-MEL-2 melanoma = test system: SK-MEL-2 melanoma
HS 578T breast = test system: HS 578T breast
LOX IMVI melanoma = test system: LOX IMVI melanoma
OVCAR-5 ovarian = test system: OVCAR-5 ovarian
SN12C renal = test system: SN12C renal
SK-OV-3 ovarian = test system: SK-OV-3 ovarian
RPMI-8226 leukemia = test system: RPMI-8226 leukemia
786-0 renal = test system: 786-0 renal
CCRF-CEM leukemia = test system: CCRF-CEM leukemia
PC-3 prostate = test system: PC-3 prostate
NCI/ADR-RES ovarian = test system: NCI/ADR-RES ovarian
SNB-75 CNS = test system: SNB-75 CNS
OVCAR-8 ovarian = test system: OVCAR-8 ovarian
SR leukemia = test system: SR leukemia
SNB-19 CNS = test system: SNB-19 CNS

Nc1c(C(=O)Nc2ccccc2)sc2nc3c(cc12)CCCCC3
GI50 (A498 renal): 307 nM
TGI (A498 renal): 4740 nM
GI50 (SF-268 CNS): 1100 nM
TGI (SF-268 CNS): 54400 nM
GI50 (IGROV1 ovarian): 6080 nM
TGI (IGROV1 ovarian): > 100000 nM
GI50 (HL-60(TB) leukemia): 319 nM
TGI (HL-60(TB) leukemia): 1850 nM
GI50 (NCI-H522 lung): 4900 nM
TGI (NCI-H522 lung): > 100000 nM
GI50 (CAKI-1 renal): 478 nM
TGI (CAKI-1 renal): > 100000 nM
GI50 (SF-539 CNS): 307 nM
TGI (SF-539 CNS): 12000 nM
GI50 (UO-31 renal): 917 nM
TGI (UO-31 renal): > 100000 nM
GI50 (NCI-H226 lung): 1490 nM
TGI (NCI-H226 lung): 24700 nM
GI50 (MOLT-4 leukemia): 2670 nM
TGI (MOLT-4 leukemia): > 100000 nM
GI50 (BT-549 breast): 819 nM
TGI (BT-549 breast): 20100 nM
GI50 (DU-145 prostate): 619 nM
TGI (DU-145 prostate): 31400 nM
GI50 (UACC-62 melanoma): 410 nM
TGI (UACC-62 melanoma): 19400 nM
GI50 (NCI-H23 lung): 874 nM
TGI (NCI-H23 lung): 97300 nM
GI50 (HOP-92 NSCLC): 910 nM
TGI (HOP-92 NSCLC): 18000 nM
GI50 (HCT-15 colon): 421 nM
TGI (HCT-15 colon): > 100000 nM
GI50 (SF-295 CNS): 366 nM
TGI (SF-295 CNS): 4040 nM
GI50 (T-47D breast): 834 nM
TGI (T-47D breast): 80600 nM
GI50 (NCI-H460 lung): 460 nM
TGI (NCI-H460 lung): > 100000 nM
GI50 (A549 NSCLC): 696 nM
TGI (A549 NSCLC): > 100000 nM
GI50 (MDA-MB-231 breast): 1620 nM
TGI (MDA-MB-231 breast): 42000 nM
GI50 (HOP-62 NSCLC): 880 nM
TGI (HOP-62 NSCLC): 13900 nM
GI50 (UACC-257 melanoma): 1460 nM
TGI (UACC-257 melanoma): > 100000 nM
GI50 (SK-MEL-28 melanoma): 812 nM
TGI (SK-MEL-28 melanoma): > 100000 nM
GI50 (OVCAR-3 ovarian): 415 nM
TGI (OVCAR-3 ovarian): 2070 nM
GI50 (M14 melanoma): 278 nM
TGI (M14 melanoma): 945 nM
GI50 (SW-620 colon): 443 nM
TGI (SW-620 colon): > 100000 nM
GI50 (HCC-2998 colon): 1010 nM
TGI (HCC-2998 colon): > 100000 nM
GI50 (MCF7 breast): 332 nM
TGI (MCF7 breast): > 100000 nM
GI50 (SK-MEL-5 melanoma): 353 nM
TGI (SK-MEL-5 melanoma): 5200 nM
GI50 (MDA-MB-435): 205 nM
TGI (MDA-MB-435): 522 nM
GI50 (HCT-116 colon): 460 nM
TGI (HCT-116 colon): > 100000 nM
GI50 (TK-10 renal): 2390 nM
TGI (TK-10 renal): 30300 nM
GI50 (ACHN renal): 998 nM
TGI (ACHN renal): > 100000 nM
GI50 (U251 CNS): 767 nM
TGI (U251 CNS): 19500 nM
GI50 (RXF 393 renal): 321 nM
TGI (RXF 393 renal): 1220 nM
GI50 (KM12 colon): 520 nM
TGI (KM12 colon): > 100000 nM
GI50 (SK-MEL-2 melanoma): 1720 nM
TGI (SK-MEL-2 melanoma): 20400 nM
GI50 (HS 578T breast): 669 nM
TGI (HS 578T breast): 31300 nM
GI50 (LOX IMVI melanoma): 907 nM
TGI (LOX IMVI melanoma): > 100000 nM
GI50 (OVCAR-5 ovarian): 1060 nM
TGI (OVCAR-5 ovarian): > 100000 nM
GI50 (SN12C renal): 1880 nM
TGI (SN12C renal): > 100000 nM
GI50 (SK-OV-3 ovarian): 633 nM
TGI (SK-OV-3 ovarian): 10800 nM
GI50 (RPMI-8226 leukemia): 372 nM
TGI (RPMI-8226 leukemia): 14300 nM
GI50 (786-0 renal): 465 nM
TGI (786-0 renal): 11800 nM
GI50 (CCRF-CEM leukemia): 410 nM
TGI (CCRF-CEM leukemia): > 100000 nM
GI50 (PC-3 prostate): 547 nM
TGI (PC-3 prostate): > 100000 nM
GI50 (NCI/ADR-RES ovarian): 507 nM
TGI (NCI/ADR-RES ovarian): > 100000 nM
GI50 (SNB-75 CNS): 378 nM
TGI (SNB-75 CNS): 2910 nM
GI50 (OVCAR-8 ovarian): 1510 nM
TGI (OVCAR-8 ovarian): > 100000 nM
GI50 (SR leukemia): 337 nM
TGI (SR leukemia): 15200 nM
GI50 (SNB-19 CNS): 643 nM
TGI (SNB-19 CNS): > 100000 nM
